Measurements published in patent US20230136941A1, “IMPROVING PLANT NUTRITIONAL VALUE AND GROWTH THROUGH ENHANCEMENT OF ESSENTIAL AMINO ACID LEVELS” (Board of Trustees of Michigan State University, priority 2020, published 2023).

Assays:
[1] = system: eva1 cotyledon epidermal cells expressing GFP-δTIP; experiment: Confocal imaging of vacuole morphology after temporal chemical treatment of eva1 seedlings; format: cell-based, Arabidopsis thaliana
[2] = system: wild type (Col-0), eva1, ipms1-4 and ipms1-5 seedlings; experiment: Primary root elongation of seedlings germinated and grown on medium containing chemical inhibitors (chronic treatment); format: in vivo, Arabidopsis thaliana
Experimental: Except for chronical treatments with specified chemicals, Arabidopsis seeds were stratified and grown on medium containing half-strength Linsmaier and Skoog nutrients (½ LS; Caisson Labs, LSP03), 1% sucrose and 0.4% phytagel (Sigma-Aldrich, P8169) in chambers configured with 21° C. and 16-hour light: 8-hour dark cycle.
In another pharmaceutical examination using AZD-8055, wortmannin and Lat B (FIG. 6A-6G, 6L-6Q), wild type (Col-0), eva1, ipms1-4 and ipms1-5 lines germinated and grew on vertically staged Petri dishes containing Arabidopsis growth medium containing specific chemical inhibitors.

[3] = system: wild type cotyledon epidermal cells expressing GFP-δTIP; experiment: Confocal imaging of vacuole morphology after temporal chemical treatment of wild type seedlings; settings: 5 μM AZD-8055, 2 or 4 hours
[4] = system: omr1-11^D cotyledon epidermal cells; experiment: ER strand phenotype of omr1-11^D after Torin2 treatment; format: cell-based, Arabidopsis thaliana; settings: 2-hour Torin2 treatment
[5] = system: wild type (Col-0), ipms1-4 and ipms1-5 seedlings; experiment: Root growth after transplant of 10-day old seedlings to Lat B medium; format: in vivo, Arabidopsis thaliana
Experimental: To examine the effect of latrunculin B (Lat B) on root elongation (FIG. 6L-6Q), wild type (Col-0), ipms1-4 and ipms1-5 lines germinated and grew on horizontally staged Petri dishes containing Arabidopsis growth medium (½ LS, 1% sucrose and 0.4% phytagel). 10-day old seedlings were transplanted to Petri dishes containing ½ LS, 1% sucrose and 1% Agar (Acumedia, 7558A) medium containing DMSO or 50 nM Lat B or 100 nM Lat B. Photographs were acquired immediately after the transplant and the Petri dishes were vertically staged in a Percival chamber.
Photographs were also acquired 8 days after the transplant.
Experiments were designed to validate this hypothesis by testing the sensitivity of the ipms1 alleles to the F-actin depolymerizing reagent latrunculin B (Lat B) (Cao et al., 2016). The primary root length of 10-day old ipms1-4 and ipms1-5 was approximately 50% of WT (FIG. 4H-4I). Seedlings of all genotypes were then transferred to medium containing DMSO or 50 nM or 100 nM Lat B in DMSO.

[6] = 25 μM Lat B, two-hour treatment
[7] = nine-day old seedlings grown on Lat B medium (FIG. 6P-6Q)

With `COc1ccc(-c2ccc3c(N4CCOC[C@@H]4C)nc(N4CCOC[C@@H]4C)nc3n2)cc1CO` [AZD-8055] the “small vacuoles and trans-vacuolar strands in eva1” value ([1]; 5 μM AZD-8055, 2 hours) was “reduced in appearance”, the “vacuole appearance of eva1 cells” value ([1]; 5 μM AZD-8055, 4 hours) was “indistinguishable from wild type” and the “vacuolar mutant phenotypes of eva1 (FIG. 6A-6F legend)” value ([1]; legend prints 5 mM AZD-8055, 2 and 4 hours) was “rescues vacuolar mutant phenotypes of eva1”. The “ipms1 primary root elongation” value ([2]; AZD-8055 higher concentrations (0.4, 0.6 and 1.0 μM), chronic) was “inhibited”, the “ipms1 primary root elongation” value ([2]; AZD-8055 lower concentrations (0.1 and 0.2 μM), chronic) was “promoted” and the “morphology of the central vacuole and trans-vacuolar strands in wild type cells” value [3] was “did not exhibit significant changes”.
In the case of `Nc1ccc(-c2ccc3ncc4ccc(=O)n(-c5cccc(C(F)(F)F)c5)c4c3c2)cn1` [Torin2, 9-(6-aminopyridin-3-yl)-1-(3-(trifluoromethyl)phenyl) benzo[h][1,6]naphthyridin-2(1H)-one], the “presumably unfused vacuoles and trans-vacuolar strands in eva1” value ([1]; 1 μM Torin2, 2 hours) is reported as “no longer present” and the “enhanced ER strands in omr1-11^D” value [4] is reported as “recovered”.
In the case of `C/C1=C/C(=O)O[C@@H]2C[C@@H](CC[C@H](C)/C=C\CC1)O[C@@](O)([C@@H]1CSC(=O)N1)C2` [Lat B, latrunculin B], the “small vacuoles in eva1” value [1, 6] is reported as “persisted”, the “trans-vacuolar strands in eva1” value [1, 6] is reported as “disappeared” and the “promotion of root elongation” value ([2]; Lat B treatment, chronic, increasing concentrations) is reported as “not observed”. The “primary root length vs DMSO control, ipms1 mutants” value [2, 7] was “less effects”, the “primary root length vs DMSO control, wild type” value [2, 7] was “significant differences” and the “primary root length of ipms1-4 and ipms1-5 compared to WT” value ([5]; 50 nM Lat B, 8 days after transplant (DMSO medium: approximately 65%)) was 80%. The “formation of lateral roots in WT seedlings” value ([5]; 50 nM or 100 nM Lat B, 8 days after transplant) was “promoted the formation of lateral roots” and the “primary root length of ipms1-4 and ipms1-5 compared to WT” value ([5]; 100 nM Lat B, 8 days after transplant) was “not significantly different from WT”.
